Format in all cases: biochemical
The target of assay [1] is T1, JAK1 (Homo sapiens, UniProt P23458).
T1 construct: 5 μl of catalytic domain recombinant Kinase enzyme+Tyr peptide substrate (Invitrogen, Calif.); purchased Invitrogen
As to the kind of experiment: Z'-LYTE kinase assay, JAK1 tyrosine phosphorylation activity. The note with it: read-out: JAK 1 IC50. Summed up: (§1)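 Recombinant catalytic-domain kinase was incubated with coumarin/fluorescein-labelled Tyr6 peptide, ATP and compound (1% DMSO final) for 1 h at room temperature. Protease development then ran 1 h at room temperature. Emission ratio at 445/520 nm (excitation 400 nm) gave percent phosphorylation; IC50s came from 4-parameter logistic fits.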

The target in assay [2] is T2, JAK2 (Homo sapiens, UniProt O60674).
T2 construct: 5 μl of catalytic domain recombinant Kinase enzyme+Tyr peptide substrate (Invitrogen, Calif.); purchased Invitrogen
T2 sequence (O60674 849-1124 limits assumed): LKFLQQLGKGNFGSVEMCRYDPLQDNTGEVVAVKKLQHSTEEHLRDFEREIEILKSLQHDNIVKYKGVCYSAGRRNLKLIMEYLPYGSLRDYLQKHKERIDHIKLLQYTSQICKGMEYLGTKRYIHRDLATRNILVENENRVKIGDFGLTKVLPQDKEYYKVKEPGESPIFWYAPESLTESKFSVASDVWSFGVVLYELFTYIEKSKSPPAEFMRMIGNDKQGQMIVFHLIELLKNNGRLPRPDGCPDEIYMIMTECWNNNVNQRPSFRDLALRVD
As to the kind of experiment: Z'-LYTE kinase assay, JAK2 tyrosine phosphorylation activity. The gist of the method: as §1

Assay [3] deals with T3, JAK3 (Homo sapiens, UniProt P52333).
T3 construct: 5 μl of catalytic domain recombinant Kinase enzyme+Tyr peptide substrate (Invitrogen, Calif.); purchased Invitrogen
T3 sequence (P52333 822-1111 limits assumed): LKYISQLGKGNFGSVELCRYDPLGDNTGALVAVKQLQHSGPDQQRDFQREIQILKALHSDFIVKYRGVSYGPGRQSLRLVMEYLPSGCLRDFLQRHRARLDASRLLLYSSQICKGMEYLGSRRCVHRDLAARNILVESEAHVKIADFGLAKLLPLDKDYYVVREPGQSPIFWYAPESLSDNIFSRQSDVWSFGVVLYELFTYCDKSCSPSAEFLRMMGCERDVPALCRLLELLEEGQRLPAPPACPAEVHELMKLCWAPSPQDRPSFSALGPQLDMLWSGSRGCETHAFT
As to the kind of experiment: Z'-LYTE kinase assay, JAK3 tyrosine phosphorylation activity. The gist of the method: as §1

In assay [4] the target is Syk (Homo sapiens, UniProt P43405). The experiment in a line: Syk IC50 (Table 1; method not given).

T1 sequence (P23458 875-1153 limits assumed): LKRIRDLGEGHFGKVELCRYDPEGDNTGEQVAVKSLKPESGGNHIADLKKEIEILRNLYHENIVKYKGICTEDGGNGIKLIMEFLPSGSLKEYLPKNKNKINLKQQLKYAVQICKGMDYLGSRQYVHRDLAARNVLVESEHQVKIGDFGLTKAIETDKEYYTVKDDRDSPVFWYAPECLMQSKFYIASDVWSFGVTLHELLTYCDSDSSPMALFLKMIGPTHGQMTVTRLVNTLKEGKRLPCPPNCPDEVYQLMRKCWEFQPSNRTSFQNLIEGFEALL

Regarding `COC(=O)Nc1cccc(Nc2ncc(C(N)=O)c(NC3CCCC3)n2)c1` [Example 23, methyl 3-(5-carbamoyl-4-(cyclopentylamino)pyrimidin-2-ylamino)phenylcarbamate], the IC50 (as a rule, the point on the concentration scale where inhibition reaches its midpoint) in assay [1] was in the range of 10 to 100 nM; in assay [2], 10 to 100 nM; in assay [3] it was 1 to 10 nM; in assay [4] it was 100 to 1000 nM.

`CC(=O)Nc1cccc(Nc2ncc(C(N)=O)c(NCC3CC3)n2)c1` [Example 12, 2-(3-acetamidophenylamino)-4-(cyclopropylmethylamino)pyrimidine-5-carboxamide] had an IC50 in assay [4] of 100 to 1000 nM.

Regarding `CC(=O)Nc1cccc(Nc2ncc(C(N)=O)c(NC3CC3c3ccccc3)n2)c1` (stereo not shown) [Example 51, 2-(3-acetamidophenylamino)-4-(2-phenylcyclopropylamino)pyrimidine-5-carboxamide], the IC50 in assay [1] lay within 100 to 1000 nM; in assay [2], 10 to 100 nM; in assay [3], 10 to 100 nM; in assay [4], 100 to 1000 nM.

As to `COCC(=O)Nc1cccc(Nc2ncc(C(N)=O)c(NCc3ccc(Cl)cc3)n2)c1` [Example 45, 4-(4-chlorobenzylamino)-2-(3-(2-methoxyacetamido)phenylamino)pyrimidine-5-carboxamide], the IC50 was greater than 1000 nM in assay [1], 100 to 1000 nM in assay [2], 100 to 1000 nM in assay [3] and greater than 1000 nM in assay [4].

`CCNC(=O)Nc1cccc(Nc2ncc(C(N)=O)c(NC3CCCC3)n2)c1` [Example 36, 4-(cyclopentylamino)-2-(3-(3-ethylureido)phenylamino)pyrimidine-5-carboxamide]: the IC50 lay within 10 to 100 nM in assay [1], 10 to 100 nM in assay [2], 1 to 10 nM in assay [3] and 100 to 1000 nM in assay [4].

As for `CCC(=O)Nc1cccc(Nc2ncc(C(N)=O)c(NC3CCCC3)n2)c1` [Example 21, 4-(cyclopentylamino)-2-(3-propionamidophenylamino)pyrimidine-5-carboxamide], the IC50 in assay [1] lay within 10 to 100 nM; in assay [2], 10 to 100 nM; in assay [3], 1 to 10 nM; in assay [4] it was 100 to 1000 nM.

As to `COc1ccc(CNc2nc(Nc3cccc(NC(C)=O)c3)ncc2C(N)=O)cc1` [Example 68, 2-(3-acetamidophenylamino)-4-(4-methoxybenzylamino)pyrimidine-5-carboxamide], the IC50 was 100 to 1000 nM in assay [1], 100 to 1000 nM in assay [2], 10 to 100 nM in assay [3] and greater than 1000 nM in assay [4].

Consider `CC(=O)Nc1cccc(Nc2ncc(C(N)=O)c(NC[C@H](O)c3ccccc3)n2)c1` [Example 49, (R)-2-(3-acetamidophenylamino)-4-(2-hydroxy-2-phenylethylamino)pyrimidine-5-carboxamide], for which the IC50 in assay [1] is 100 to 1000 nM; in assay [2] it was 10 to 100 nM; in assay [3] it was 1 to 10 nM; in assay [4] it was 100 to 1000 nM.

As for `CC(=O)Nc1cccc(Nc2ncc(C(N)=O)c(NC(C)(C)C)n2)c1` [Example 13, 2-(3-acetamidophenylamino)-4-(tert-butylamino)pyrimidine-5-carboxamide], the IC50 in assay [4] is 100 to 1000 nM.

In assay [4], `COCCNc1nc(Nc2cccc(NC(C)=O)c2)ncc1C(N)=O` [Example 14, 2-(3-acetamidophenylamino)-4-(2-methoxyethylamino)pyrimidine-5-carboxamide] showed an IC50 of 100 to 1000 nM.

For the compound `CC(=O)Nc1cccc(Nc2ncc(C(N)=O)c(NCCc3ccccc3)n2)c1` [Example 56, 2-(3-acetamidophenylamino)-4-(phenethylamino)pyrimidine-5-carboxamide], the IC50 fell in the range of 100 to 1000 nM in assay [1], 10 to 100 nM in assay [2], 10 to 100 nM in assay [3] and 100 to 1000 nM in assay [4].

For the compound `NC(=O)Nc1cccc(Nc2ncc(C(N)=O)c(NC3CCCC3)n2)c1` [Example 33, 4-(cyclopentylamino)-2-(3-ureidophenylamino)pyrimidine-5-carboxamide], the IC50 in assay [1] is 10 to 100 nM; in assay [2], 10 to 100 nM; in assay [3] it was 1 to 10 nM; in assay [4] it was 100 to 1000 nM.

Regarding `NC(=O)c1cnc(Nc2cccc(NC(=O)C3CC3)c2)nc1NC1CCCC1` [Example 19, 4-(cyclopentylamino)-2-(3-(cyclopropanecarboxamido)phenylamino)pyrimidine-5-carboxamide], the 50% inhibitory concentration (IC50) is 10 to 100 nM in assay [1], 10 to 100 nM in assay [2], 1 to 10 nM in assay [3] and 100 to 1000 nM in assay [4].

Regarding `CC(=O)Nc1cccc(Nc2ncc(C(N)=O)c(NCCC(N)=O)n2)c1` [Example 61, 2-(3-acetamidophenylamino)-4-(3-amino-3-oxopropylamino)pyrimidine-5-carboxamide], the IC50 in assay [1] is 10 to 100 nM; in assay [2], 100 to 1000 nM; in assay [3], 10 to 100 nM; in assay [4], greater than 1000 nM.

`CC(=O)Nc1cccc(Nc2ncc(C(N)=O)c(N[C@H]3CCC[C@@H]3O)n2)c1` (relative stereo) [Example 53, 2-(3-acetamidophenylamino)-4-((trans)-2-hydroxycyclopentylamino)pyrimidine-5-carboxamide]: the half-maximal inhibitory concentration (IC50) fell in the range of 10 to 100 nM in assay [1], 10 to 100 nM in assay [2], 1 to 10 nM in assay [3] and 100 to 1000 nM in assay [4].

As to `CC(=O)Nc1cccc(Nc2ncc(C(N)=O)c(NCCN3CCCC3)n2)c1` [Example 63, 2-(3-acetamidophenylamino)-4-(2-(pyrrolidin-1-yl)ethylamino)pyrimidine-5-carboxamide], the IC50 was greater than 1000 nM in assay [1], greater than 1000 nM in assay [2], 100 to 1000 nM in assay [3] and greater than 1000 nM in assay [4].

As for `CC(=O)Nc1cccc(Nc2ncc(C(N)=O)c(NC[C@@H](O)c3ccccc3)n2)c1` [Example 48, (S)-2-(3-acetamidophenylamino)-4-(2-hydroxy-2-phenylethylamino)pyrimidine-5-carboxamide], the IC50 in assay [1] is 100 to 1000 nM; in assay [2], 10 to 100 nM; in assay [3] it was 1 to 10 nM; in assay [4] it was greater than 1000 nM.

With `CC(=O)Nc1cccc(Nc2ncc(C(N)=O)c(NC[C@@H](C)c3ccccc3)n2)c1` [Example 3, (S)-2-(3-acetamidophenylamino)-4-(2-phenylpropylamino)pyrimidine-5-carboxamide], the IC50 in assay [1] is 10 to 100 nM; in assay [2] it was 1 to 10 nM; in assay [3] it was 1 to 10 nM; in assay [4], greater than 1000 nM.

The compound `COCCCNc1nc(Nc2cccc(NC(C)=O)c2)ncc1C(N)=O` [Example 16, 2-(3-acetamidophenylamino)-4-(3-methoxypropylamino)pyrimidine-5-carboxamide] returned an IC50 in assay [4] of 100 to 1000 nM.

Consider `CCNc1nc(Nc2cccc(NC(C)=O)c2)ncc1C(N)=O` [Example 9, 2-(3-acetamidophenylamino)-4-(ethylamino)pyrimidine-5-carboxamide], for which the IC50 in assay [4] was in the range of 100 to 1000 nM.

Compound `CNc1nc(Nc2cccc(NC(C)=O)c2)ncc1C(N)=O` [Example 8, 2-(3-acetamidophenylamino)-4-(methylamino)pyrimidine-5-carboxamide] yielded an IC50 in assay [4] of 100 to 1000 nM.

Consider `CC(=O)Nc1cccc(Nc2ncc(C(N)=O)c(NC(C)C)n2)c1` [Example 11, 2-(3-acetamidophenylamino)-4-(isopropylamino)pyrimidine-5-carboxamide], for which the IC50 in assay [4] lay within 100 to 1000 nM.

These data come from US8853230B2, “Inhibitors of JAK” (Portola Pharmaceuticals, Inc., priority 2009, dated 2014).
